Measured values published in ChEMBL document CHEMBL1201862, “PubChem BioAssay data set” (2004).
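All cell lines were grown in 96-well plates and treated with compound for 48 hours. Here, GI50 denotes the concentration required for 50% inhibition of growth.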 Calls of active or inactive are those of the source. No stated cut-off is given here; in the data, active = GI50 up to about 1.1 µM and inactive = higher.

How the values were obtained:
Test in all cases: NCI anticancer screen, dose series, 48 h
[1] = system: 786-0
[2] = system: A549
[3] = system: CAKI-1
[4] = system: CCRF-CEM
[5] = system: COLO 205
[6] = system: DU-145
[7] = system: EKVX
[8] = system: HCC 2998
[9] = system: HCT-15
[10] = system: HL-60
[11] = system: HOP-62
[12] = system: HT-29
[13] = system: IGROV-1
[14] = system: K562
[15] = system: KM12
[16] = system: LOX IMVI
[17] = system: M14
[18] = system: MCF7
[19] = system: MDA-N
[20] = system: MOLT-4
[21] = system: Malme-3M
[22] = system: NCI-H23
[23] = system: OVCAR-8
[24] = system: PC-3
[25] = system: RPMI-8226
[26] = system: SF-268
[27] = system: SF-295
[28] = system: SK-MEL-28
[29] = system: SK-MEL-5
[30] = system: SK-OV-3
[31] = system: SN12C
[32] = system: SNB-75
[33] = system: SR
[34] = system: SW-620
[35] = system: T47D
[36] = system: TK-10
[37] = system: UACC-257
[38] = system: UACC-62
[39] = system: ACHN
[40] = system: HCT-116
[41] = system: HOP-92
[42] = system: Hs-578T
[43] = system: MDA-MB-231
[44] = system: MDA-MB-435
[45] = system: NCI-H226
[46] = system: NCI-H460
[47] = system: NCI/ADR-RES
[48] = system: OVCAR-3
[49] = system: OVCAR-4
[50] = system: OVCAR-5
[51] = system: RXF 393
[52] = system: SF-539
[53] = system: SK-MEL-2
[54] = system: SNB-19
[55] = system: U-251
[56] = system: UO-31
[57] = system: NCI-H522

For `COc1ccc(C2=C(OC(=O)N(C)C)c3cccn3-c3cc(C(F)(F)F)ccc3S2)cc1`, which GI50 [1] is on record?
The GI50 was > 10 µM (inactive).

What about the GI50 [2] of the same compound?
The GI50 was > 10 µM (inactive).

And the GI50 [3]?
The GI50 was > 10 µM (inactive).

What about the GI50 [4] of the same compound?
Its GI50 is > 10 µM (inactive).

What about the GI50 [5] of the same compound?
Its GI50 is > 10 µM (inactive).

And the GI50 [6]?
The GI50 was > 10 µM (inactive).

What about the GI50 [7] of the same compound?
The GI50 was > 10 µM (inactive).

What about the GI50 [8] of the same compound?
Its GI50 is > 10 µM (inactive).

And the GI50 [9]?
The GI50 was greater than 10 µM.

And the GI50 [10]?
Its GI50 is 6.03 µM (inactive).

And the GI50 [11]?
The GI50 was > 10 µM (inactive).

What about the GI50 [12] of the same compound?
The GI50 was > 10 µM (inactive).

What about the GI50 [13] of the same compound?
Its GI50 is > 10 µM (inactive).

And the GI50 [14]?
Its GI50 is > 10 µM (inactive).

And the GI50 [15]?
The GI50 was 0.467 µM (active).

What about the GI50 [16] of the same compound?
The GI50 was > 10 µM (inactive).

And the GI50 [17]?
Its GI50 is > 10 µM (inactive).

What about the GI50 [18] of the same compound?
Its GI50 is 9.29 µM (inactive).

And the GI50 [19]?
Its GI50 is > 10 µM (inactive).

What about the GI50 [20] of the same compound?
Its GI50 is 4.79 µM (inactive).

What about the GI50 [21] of the same compound?
Its GI50 is > 10 µM (inactive).

What about the GI50 [22] of the same compound?
The GI50 was 8.81 µM (inactive).

What about the GI50 [23] of the same compound?
Its GI50 is > 10 µM (inactive).

What about the GI50 [24] of the same compound?
The GI50 was 4.3 µM (inactive).

And the GI50 [25]?
Its GI50 is 3.75 µM (inactive).

What about the GI50 [26] of the same compound?
Its GI50 is > 10 µM (inactive).

And the GI50 [27]?
Its GI50 is > 10 µM (inactive).

What about the GI50 [28] of the same compound?
The GI50 was > 10 µM (inactive).

And the GI50 [29]?
Its GI50 is > 10 µM (inactive).

And the GI50 [30]?
Its GI50 is > 10 µM (inactive).

What about the GI50 [31] of the same compound?
The GI50 was > 10 µM (inactive).

What about the GI50 [32] of the same compound?
Its GI50 is > 10 µM (inactive).

What about the GI50 [33] of the same compound?
The GI50 was 4.99 µM (inactive).

And the GI50 [34]?
The GI50 was > 10 µM (inactive).

And the GI50 [35]?
The GI50 was 3.47 µM (inactive).

And the GI50 [36]?
Its GI50 is > 10 µM (inactive).

What about the GI50 [37] of the same compound?
The GI50 was > 10 µM (inactive).

What about the GI50 [38] of the same compound?
The GI50 was > 10 µM (inactive).

What does the source list for `CCC(=N\NC(N)=S)/C(C)=N/O`?
GI50 [1]: > 100 µM (inactive); GI50 [2]: > 100 µM (inactive); GI50 [39]: > 100 µM (inactive); GI50 [3]: > 100 µM (inactive); GI50 [5]: > 100 µM (inactive); GI50 [6]: > 100 µM (inactive); GI50 [7]: > 100 µM (inactive); GI50 [8]: > 100 µM (inactive); GI50 [40]: > 100 µM (inactive); GI50 [9]: > 100 µM; GI50 [11]: > 100 µM (inactive); GI50 [41]: > 100 µM (inactive); GI50 [12]: > 100 µM (inactive); GI50 [42]: > 100 µM (inactive); GI50 [13]: > 100 µM (inactive); GI50 [14]: > 100 µM (inactive); GI50 [15]: > 100 µM (inactive); GI50 [16]: > 100 µM (inactive); GI50 [17]: > 100 µM (inactive); GI50 [18]: > 100 µM (inactive); GI50 [43]: > 100 µM (inactive); GI50 [44]: > 100 µM (inactive); GI50 [19]: > 100 µM (inactive); GI50 [21]: > 100 µM (inactive); GI50 [45]: > 100 µM (inactive); GI50 [22]: > 100 µM (inactive); GI50 [46]: > 100 µM (inactive); GI50 [47]: > 100 µM (inactive); GI50 [48]: > 100 µM (inactive); GI50 [49]: > 100 µM (inactive); GI50 [50]: > 100 µM (inactive); GI50 [23]: > 100 µM (inactive); GI50 [24]: > 100 µM (inactive); GI50 [25]: > 100 µM (inactive); GI50 [51]: > 100 µM (inactive); GI50 [26]: > 100 µM (inactive); GI50 [27]: > 100 µM (inactive); GI50 [52]: > 100 µM (inactive); GI50 [28]: > 100 µM (inactive); GI50 [53]: > 100 µM (inactive); GI50 [29]: > 100 µM (inactive); GI50 [30]: > 100 µM (inactive); GI50 [31]: > 100 µM (inactive); GI50 [54]: > 100 µM (inactive); GI50 [34]: > 100 µM (inactive); GI50 [35]: > 100 µM (inactive); GI50 [36]: > 100 µM (inactive); GI50 [55]: > 100 µM (inactive); GI50 [37]: > 100 µM (inactive); GI50 [38]: > 100 µM (inactive); GI50 [56]: 62.1 µM (inactive)

For `NCCSC1(O)C(=O)c2ccccc2-c2ccccc21` (configuration not stated), which GI50 [1] is on record?
The GI50 was 1.63 µM (inactive).

What about the GI50 [2] of the same compound?
Its GI50 is 0.719 µM (active).

And the GI50 [39]?
The GI50 was 1.05 µM (active).

What about the GI50 [4] of the same compound?
Its GI50 is 0.158 µM (active).

What about the GI50 [5] of the same compound?
Its GI50 is 1.85 µM (inactive).

What about the GI50 [6] of the same compound?
The GI50 was 1.06 µM (active).

What about the GI50 [7] of the same compound?
The GI50 was 1.66 µM (inactive).

And the GI50 [40]?
Its GI50 is 0.176 µM (active).

And the GI50 [9]?
The GI50 was 1.49 µM.

And the GI50 [10]?
The GI50 was 1.09 µM (active).

What about the GI50 [11] of the same compound?
Its GI50 is 1.53 µM (inactive).

What about the GI50 [12] of the same compound?
The GI50 was 1.21 µM (inactive).

And the GI50 [42]?
The GI50 was 1.41 µM (inactive).

What about the GI50 [13] of the same compound?
Its GI50 is 1.8 µM (inactive).

What about the GI50 [14] of the same compound?
The GI50 was 0.382 µM (active).

What about the GI50 [15] of the same compound?
The GI50 was 1.63 µM (inactive).

And the GI50 [16]?
Its GI50 is 0.256 µM (active).

And the GI50 [17]?
Its GI50 is 1.02 µM (active).

What about the GI50 [18] of the same compound?
The GI50 was 1.83 µM (inactive).

And the GI50 [43]?
The GI50 was 0.483 µM (active).

What about the GI50 [44] of the same compound?
Its GI50 is < 0.01 µM (active).

And the GI50 [20]?
Its GI50 is 0.181 µM (active).

What about the GI50 [21] of the same compound?
The GI50 was 1 µM (active).

What about the GI50 [45] of the same compound?
Its GI50 is 1.33 µM (inactive).

And the GI50 [22]?
The GI50 was 0.143 µM (active).

And the GI50 [46]?
The GI50 was 1.78 µM (inactive).

And the GI50 [57]?
Its GI50 is 1.55 µM (inactive).

What about the GI50 [47] of the same compound?
Its GI50 is 0.272 µM (active).

And the GI50 [48]?
Its GI50 is < 0.01 µM (active).

What about the GI50 [49] of the same compound?
The GI50 was 0.207 µM (active).

And the GI50 [50]?
The GI50 was 1.53 µM (inactive).

What about the GI50 [23] of the same compound?
Its GI50 is 0.262 µM (active).

What about the GI50 [24] of the same compound?
Its GI50 is 1.25 µM (inactive).

And the GI50 [25]?
Its GI50 is 0.0348 µM (active).

And the GI50 [51]?
Its GI50 is 1.64 µM (inactive).

And the GI50 [26]?
Its GI50 is 1.5 µM (inactive).

What about the GI50 [27] of the same compound?
The GI50 was < 0.01 µM (active).

And the GI50 [52]?
Its GI50 is 1.15 µM (inactive).

And the GI50 [28]?
The GI50 was 1.21 µM (inactive).

What about the GI50 [53] of the same compound?
The GI50 was 1.61 µM (inactive).

What about the GI50 [29] of the same compound?
Its GI50 is 0.265 µM (active).

What about the GI50 [30] of the same compound?
Its GI50 is 1.63 µM (inactive).

And the GI50 [31]?
The GI50 was 1.36 µM (inactive).

And the GI50 [54]?
Its GI50 is 1.53 µM (inactive).

And the GI50 [32]?
Its GI50 is 0.553 µM (active).

And the GI50 [33]?
Its GI50 is 0.0472 µM (active).

And the GI50 [34]?
The GI50 was 1.52 µM (inactive).

And the GI50 [35]?
The GI50 was 2.1 µM (inactive).

What about the GI50 [36] of the same compound?
Its GI50 is 1.73 µM (inactive).

And the GI50 [55]?
Its GI50 is 0.713 µM (active).

And the GI50 [37]?
Its GI50 is 0.435 µM (active).

What about the GI50 [38] of the same compound?
The GI50 was 1.64 µM (inactive).

What about the GI50 [56] of the same compound?
The GI50 was 1.47 µM (inactive).
